# Measurements published in paper PMC1971749, “The effects of gonadotrophin releasing hormone analogues in prostate cancer are mediated through specific tumour receptors” (British Journal of Cancer, 1990).
# Where two headings read alike, the source gives them in different places.
# Tests used:
# [1] = test system: LNCaP cells; test: Biological response study, growth of LNCaP cells; format: cell-based, human
# Text: Br.~~~~ ~ ~ J. Cace (19) 62 969 ?amla resLd,19 The effects of gonadotrophin releasing hormone analogues in prostate cancer are mediated through specific tumour receptors A. Qayuml, W. Gullick2, R.C. Clayton3, K. Sikora' & J. Waxman' 'Department of Clinical Oncology and 2ICRF Oncology Group, Royal Postgraduate Medical School, and 3Clinical Endocrinology, MRC, Northwick Park Hospital, London, UK. Summary We have investigated the possibility of a direct regulatory effect of gonadotrophin releasing hormone (GnRH) analogues on prostatic cancer cell growth. Here we report high affinity binding (Kd = 50 nM) of a GnRH analogue resulting in biphasic growth modulation of the human androgen-sensitive prostatic cancer cell line LNCaP. […] Seventy-six human benign and malignant tumours were assayed following surgical resection. […] Cancer of the prostate is the second most common cause of malignancy among males. The treatment of prostatic cancer aims to reduce serum androgen concentrations. The long- acting agonist analogues of GnRH have been recently intro- duced as effective alternative therapies to orchiectomy and oestrogen treatment (Waxman, 1987). Their effect on andro- gen dependent cell growth is thought to be mediated through down-regulation of the pituitary-gonadal axis. GnRH agon- ist treatment leads to an initial increase in the serum levels of LH, FSH and androgens and this may be accompanied by tumour flare (Waxman et al., 1985). However, this exacerba- tion of symptoms is not temporally related to changes in serum LH, FSH and androgen concentrations. The differ- ences in the timing of these biochemical and clinical phenomena raises the possibility of a direct effect of GnRH analogues at the level of the tumour. This present study explored the direct effects of GnRH analogues on prostatic cancer cells in culture and in vivo. GnRH analogue binding to human prostatic cancer cells grown in culture and biopsy samples was first examined. GnRH binding sites were characterised in cell lines and in human tumours. The biological effects of GnRH on prostatic cancer cells and a possible autocrine stimulatory role of GnRH-like peptides were investigated. Materials and methods Cell culture The human androgen-sensitive prostatic cancer cell line LNCaP (isolated from lymph node metastasis; Horoszewicz et al., 1983) and the human androgen-insensitive prostatic cell line DU145 (isolated from brain metastasis) were obtained from the American Type Culture Collection. Cul- tures were maintained in exponential growth in RPMI 1640 medium containing 10% charcoal stripped fetal calf serum and 5 fig ml-I insulin. The fetal calf serum used in cell cul- ture medium was treated with dextran and charcoal to remove steroids. Charcoal 0.25% and dextran-T70 0.025% were added to the serum, which was heated at 56'C for 2 h and then centrifuged at 4,000 r.p.m. for O min. The pellet was discarded, serum was filtered through 0.4 ltm filters and used in culture medium. The treated serum was assayed for steroid hormones by the Hammersmith Hospital Endocrine Laboratories and found to be steroid free, Cultures were incubated at 37?C in a humidified atmosphere containing 5% CO2 and subcultured weekly using 0.1% EDTA to remove the cells from the plastic substratum. […] GnRH binding assays Exponentially growing cells were harvested with 0.1% EDTA, washed twice with PBS and counted using 0.2% trypan blue as an indicator. […]
# [2] = test system: GnRH binding sites of LNCaP cells; test: GnRH analogue binding to LNCaP cells (displacement of 125I-buserelin); parameters: species or system human; conditions: for displacement of labelled buserelin: specificity test, structurally unrelated peptides, LNCaP
# Text: Br.~~~~ ~ ~ J. Cace (19) 62 969 ?amla resLd,19 The effects of gonadotrophin releasing hormone analogues in prostate cancer are mediated through specific tumour receptors A. Qayuml, W. Gullick2, R.C. Clayton3, K. Sikora' & J. Waxman' 'Department of Clinical Oncology and 2ICRF Oncology Group, Royal Postgraduate Medical School, and 3Clinical Endocrinology, MRC, Northwick Park Hospital, London, UK. Summary We have investigated the possibility of a direct regulatory effect of gonadotrophin releasing hormone (GnRH) analogues on prostatic cancer cell growth. Here we report high affinity binding (Kd = 50 nM) of a GnRH analogue resulting in biphasic growth modulation of the human androgen-sensitive prostatic cancer cell line LNCaP. […] Seventy-six human benign and malignant tumours were assayed following surgical resection. […] Cancer of the prostate is the second most common cause of malignancy among males. The treatment of prostatic cancer aims to reduce serum androgen concentrations. The long- acting agonist analogues of GnRH have been recently intro- duced as effective alternative therapies to orchiectomy and oestrogen treatment (Waxman, 1987). Their effect on andro- gen dependent cell growth is thought to be mediated through down-regulation of the pituitary-gonadal axis. GnRH agon- ist treatment leads to an initial increase in the serum levels of LH, FSH and androgens and this may be accompanied by tumour flare (Waxman et al., 1985). However, this exacerba- tion of symptoms is not temporally related to changes in serum LH, FSH and androgen concentrations. The differ- ences in the timing of these biochemical and clinical phenomena raises the possibility of a direct effect of GnRH analogues at the level of the tumour. This present study explored the direct effects of GnRH analogues on prostatic cancer cells in culture and in vivo. GnRH analogue binding to human prostatic cancer cells grown in culture and biopsy samples was first examined. GnRH binding sites were characterised in cell lines and in human tumours. The biological effects of GnRH on prostatic cancer cells and a possible autocrine stimulatory role of GnRH-like peptides were investigated. Materials and methods Cell culture The human androgen-sensitive prostatic cancer cell line LNCaP (isolated from lymph node metastasis; Horoszewicz et al., 1983) and the human androgen-insensitive prostatic cell line DU145 (isolated from brain metastasis) were obtained from the American Type Culture Collection. Cul- tures were maintained in exponential growth in RPMI 1640 medium containing 10% charcoal stripped fetal calf serum and 5 fig ml-I insulin. The fetal calf serum used in cell cul- ture medium was treated with dextran and charcoal to remove steroids. Charcoal 0.25% and dextran-T70 0.025% were added to the serum, which was heated at 56'C for 2 h and then centrifuged at 4,000 r.p.m. for O min. The pellet was discarded, serum was filtered through 0.4 ltm filters and used in culture medium. The treated serum was assayed for steroid hormones by the Hammersmith Hospital Endocrine Laboratories and found to be steroid free, Cultures were incubated at 37?C in a humidified atmosphere containing 5% CO2 and subcultured weekly using 0.1% EDTA to remove the cells from the plastic substratum. Under these conditions, the doubling times of DU145 and LNCaP cells were 72 and 144 h respectively. GnRH binding assays Exponentially growing cells were harvested with 0.1% EDTA, washed twice with PBS and counted using 0.2% trypan blue as an indicator. The cells were then resuspended in assay buffer (10 mM Tris-HCI pH 7.6, 1 mM dithiothreitol, 0.3% bovine serum albumin). One million cells per tube were incubated with 200,000 c.p.m. (0.1 nM) of 25I buserelin (125J_ D-Ser (TBU)6-LHRH-ethylamide) (Hoechst AG, Frankfurt), (specific activity 53,000 kBq;bg-') with or without varying concentrations of unlabelled buserelin (O.1-100 nM). Non- specific binding was estimated in the presence of 10 IM unlabelled buserelin. […]
# [3] = test system: GnRH binding sites of DU145 cells; test: GnRH analogue binding to DU145 cells (displacement of 125I-buserelin); parameters: species or system human
# Text: (§1) Br.~~~~ ~ ~ J. Cace (19) 62 969 ?amla resLd,19 The effects of gonadotrophin releasing hormone analogues in prostate cancer are mediated through specific tumour receptors A. Qayuml, W. Gullick2, R.C. Clayton3, K. Sikora' & J. Waxman' 'Department of Clinical Oncology and 2ICRF Oncology Group, Royal Postgraduate Medical School, and 3Clinical Endocrinology, MRC, Northwick Park Hospital, London, UK. Summary We have investigated the possibility of a direct regulatory effect of gonadotrophin releasing hormone (GnRH) analogues on prostatic cancer cell growth. Here we report high affinity binding (Kd = 50 nM) of a GnRH analogue resulting in biphasic growth modulation of the human androgen-sensitive prostatic cancer cell line LNCaP. […] Seventy-six human benign and malignant tumours were assayed following surgical resection. […] Cancer of the prostate is the second most common cause of malignancy among males. The treatment of prostatic cancer aims to reduce serum androgen concentrations. The long- acting agonist analogues of GnRH have been recently intro- duced as effective alternative therapies to orchiectomy and oestrogen treatment (Waxman, 1987). […] GnRH binding assays Exponentially growing cells were harvested with 0.1% EDTA, washed twice with PBS and counted using 0.2% trypan blue as an indicator. […]
# [4] = GnRH radioimmunoassay, specificity; conditions: cross-reactivity control, Figure 1; sensitivity 0.25 fmol per tube
# [5] = test system: DU145 cells; test: Biological response study, growth of DU145 cells; format: cell-based, human; conditions: DU145 (androgen-insensitive) cells, 10 days
# Text: as §1
# [6] = 100-fold excess of GnRH antagonist over buserelin, cell numbers, triplicate, representative experiment (Figure 6)
compound,measurement,setting,value
"D-pGlul, D-Phe2, D- Trp3' 6) GnRH [GnRH antagonist]",block of inhibitory effect of buserelin,[1]; [6],partially blocked
same,block of stimulatory effect of buserelin,[1]; [6],partially blocked
N[C@@H](CSSC[C@H](N)C(=O)Nc1ccc([N+](=O)[O-])cc1)C(=O)Nc1ccc([N+](=O)[O-])cc1 [L-cystine-bis-(4-nitroanilide)],reduction of specific binding of buserelin by protease substrate,"[2]; LNCaP cells, protease substrate final concentration 10 µM (printed ""10 gsM"")",28%
same,reduction of specific binding of buserelin by protease substrate,"[3]; protease substrate final concentration 10 µM (printed ""10 gsM"")",68%
"bradykinin: structurally unrelated peptide (RPPGFSPFR; Bradykinin; UniProt P01042 381-389, looked up)",displacement of labelled buserelin,[2],did not displace labelled buserelin
same,GnRH-immunoreactivity in GnRH-RIA,[4],did not show any GnRH-immunoreactivity
oxytocin: structurally unrelated peptide,displacement of labelled buserelin,[2],did not displace labelled buserelin
same,GnRH-immunoreactivity in GnRH-RIA,[4],did not show any GnRH-immunoreactivity
D-Ser (TBU)6-LHRH-ethylamide [buserelin],growth of the cells at higher concentrations,"[1]; 10 days, GnRH analogue 100 nM",slightly inhibited
same,"stimulation of growth relative to control cultures, total DNA content","[1]; 10 days, buserelin 1-10 nM, 10% charcoal stripped FCS, Burton's method, three experiments each in triplicate",≤ 140%
same,"stimulation of growth relative to control cultures, cell numbers","[1]; 10 days, buserelin 1-10 nM, 10% charcoal stripped FCS, three experiments each in triplicate",≤ 140%
same,Kd,"[2]; Scatchard transformation of the same data, single class of binding sites in LNCaP cells, read-out: Kd (Scatchard plot)",40 nM
same,binding sites per cell,"[2]; Scatchard transformation, LNCaP cells","35,000 binding sites per cell"
same,Kd,"[2]; intact LNCaP cells (10^6 per tube), 125I buserelin 0.1 nM, unlabelled buserelin, Tris-HCl pH 7.6, 3 h, 4 C, triplicate, representative experiment, read-out: Kd of GnRH analogue binding in LNCaP",50 nM
same,Kd,"[3]; 125I buserelin 0.1 nM, 3 h, 4 C, pH 7.6, abstract, read-out: Kd, low-affinity binding in DU145",10000 nM
same,response to buserelin treatment (growth),[5],did not show any response
same,response to buserelin treatment (growth),[5]; listed as GnRH analogue,without any biological response
